# Laboratory results as given in PubChem BioAssay AID2060909 (Molecular Pharmacology Branch, DTP, NCI, 2025).
# Test system: 362531-283-R-J2-PDC complex spheroid viability
# Assay: Anticancer human tumor 362531-283-R-J2-PDC patient-derived colon adenocarcinoma cell line growth inhibition [RAS]
# Conditions: for IC50: curve of first compound; for viability, T/C: stronger effect = lower value
# Summary of the method: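 Tumour cells grown as complex spheroids with HUVEC endothelial cells and mesenchymal stem cells, treated with RAS pathway inhibitor combinations. Each agent spans half-log steps from near clinical Cmax, or 10 microM where Cmax is unknown.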
# [1] = second compound 0.0316 µM, first compound 0.0316 µM
# [2] = second compound 0.0316 µM, first compound 0.1 µM
# [3] = second compound 0.0316 µM, first compound 0.316 µM
# [4] = second compound 0.0316 µM, first compound 1 µM
# [5] = second compound 0.0316 µM, first compound 3.16 µM
# [6] = second compound 0.0316 µM, first compound 10 µM
# [7] = second compound 0.1 µM, first compound 0.0316 µM
# [8] = second compound 0.1 µM, first compound 0.1 µM
# [9] = second compound 0.1 µM, first compound 0.316 µM
# [10] = second compound 0.1 µM, first compound 1 µM
# [11] = second compound 0.1 µM, first compound 3.16 µM
# [12] = second compound 0.1 µM, first compound 10 µM
# [13] = second compound 0.316 µM, first compound 0.0316 µM
# [14] = second compound 0.316 µM, first compound 0.1 µM
# [15] = second compound 0.316 µM, first compound 0.316 µM
# [16] = second compound 0.316 µM, first compound 1 µM
# [17] = second compound 0.316 µM, first compound 3.16 µM
# [18] = second compound 0.316 µM, first compound 10 µM
# [19] = second compound 1 µM, first compound 0.0316 µM
# [20] = second compound 1 µM, first compound 0.1 µM
# [21] = second compound 1 µM, first compound 0.316 µM
# [22] = second compound 1 µM, first compound 1 µM
# [23] = second compound 1 µM, first compound 3.16 µM
# [24] = second compound 1 µM, first compound 10 µM
# [25] = second compound 3.16 µM, first compound 0.0316 µM
# [26] = second compound 3.16 µM, first compound 0.1 µM
# [27] = second compound 3.16 µM, first compound 0.316 µM
# [28] = second compound 3.16 µM, first compound 1 µM
# [29] = second compound 3.16 µM, first compound 3.16 µM
# [30] = second compound 3.16 µM, first compound 10 µM
# [31] = second compound 10 µM, first compound 0.0316 µM
# [32] = second compound 10 µM, first compound 0.1 µM
# [33] = second compound 10 µM, first compound 0.316 µM
# [34] = second compound 10 µM, first compound 1 µM
# [35] = second compound 10 µM, first compound 3.16 µM
# [36] = second compound 10 µM, first compound 10 µM
# 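Also: spheroids exposed to the agents for 7 days before readout.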
# 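For viability, T/C in this document: luminescence viability as percent of DMSO vehicle control wells.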
smiles,measurement,setting,value
CC1(O)CCCC1n1c(=O)c(C(F)F)cc2cnc(NC3CCN(S(C)(=O)=O)CC3)nc21 (stereo not drawn) + C#Cc1c(F)ccc2cc(O)cc(-c3ncc4c(N5CC6CCC(C5)N6)nc(OCC56CCCN5CC(F)C6)nc4c3F)c12,IC50,second compound 0.0316 µM,> 10000 nM
same,IC50,second compound 0.1 µM,> 10000 nM
same,IC50,second compound 0.316 µM,3080 nM
same,IC50,second compound 1 µM,3430 nM
same,IC50,second compound 3.16 µM,1290 nM
same,IC50,second compound 10 µM,< 31.6 nM
same,"viability, T/C",[1],92.6%
same,"viability, T/C",[2],91.8%
same,"viability, T/C",[3],71.8%
same,"viability, T/C",[4],71%
same,"viability, T/C",[5],62.3%
same,"viability, T/C",[6],81%
same,"viability, T/C",[7],95.4%
same,"viability, T/C",[8],92.5%
same,"viability, T/C",[9],80.9%
same,"viability, T/C",[10],73.4%
same,"viability, T/C",[11],68.7%
same,"viability, T/C",[12],73.2%
same,"viability, T/C",[13],82.7%
same,"viability, T/C",[14],89.1%
same,"viability, T/C",[15],74.6%
same,"viability, T/C",[16],66.4%
same,"viability, T/C",[17],49.8%
same,"viability, T/C",[18],37%
same,"viability, T/C",[19],82.8%
same,"viability, T/C",[20],80.5%
same,"viability, T/C",[21],67.7%
same,"viability, T/C",[22],69.3%
same,"viability, T/C",[23],53.9%
same,"viability, T/C",[24],20.4%
same,"viability, T/C",[25],59.2%
same,"viability, T/C",[26],59.8%
same,"viability, T/C",[27],61.4%
same,"viability, T/C",[28],54.7%
same,"viability, T/C",[29],32%
same,"viability, T/C",[30],7.49%
same,"viability, T/C",[31],45.1%
same,"viability, T/C",[32],50.7%
same,"viability, T/C",[33],29.9%
same,"viability, T/C",[34],29.7%
same,"viability, T/C",[35],24.7%
same,"viability, T/C",[36],5.91%
CCC(CC)c1cc(NC2CCC(N)C2)n2nccc2n1 (stereo not drawn) + C#Cc1c(F)ccc2cc(O)cc(-c3ncc4c(N5CC6CCC(C5)N6)nc(OCC56CCCN5CC(F)C6)nc4c3F)c12,IC50,second compound 0.0316 µM,4960 nM
same,IC50,second compound 0.1 µM,4360 nM
same,IC50,second compound 0.316 µM,5070 nM
same,IC50,second compound 1 µM,1820 nM
same,IC50,second compound 3.16 µM,1500 nM
same,IC50,second compound 10 µM,338 nM
same,"viability, T/C",[1],96.9%
same,"viability, T/C",[2],107%
same,"viability, T/C",[3],99.9%
same,"viability, T/C",[4],105%
same,"viability, T/C",[5],79%
same,"viability, T/C",[6],4.8%
same,"viability, T/C",[7],105%
same,"viability, T/C",[8],98.8%
same,"viability, T/C",[9],101%
same,"viability, T/C",[10],88%
same,"viability, T/C",[11],70%
same,"viability, T/C",[12],3.26%
same,"viability, T/C",[13],117%
same,"viability, T/C",[14],96.9%
same,"viability, T/C",[15],89.5%
same,"viability, T/C",[16],83.3%
same,"viability, T/C",[17],87.2%
same,"viability, T/C",[18],2.95%
same,"viability, T/C",[19],80.4%
same,"viability, T/C",[20],88.3%
same,"viability, T/C",[21],82.2%
same,"viability, T/C",[22],82.9%
same,"viability, T/C",[23],19.8%
same,"viability, T/C",[24],4.12%
same,"viability, T/C",[25],72.4%
same,"viability, T/C",[26],76.3%
same,"viability, T/C",[27],68.1%
same,"viability, T/C",[28],79.2%
same,"viability, T/C",[29],5.75%
same,"viability, T/C",[30],3.27%
same,"viability, T/C",[31],44.2%
same,"viability, T/C",[32],49.4%
same,"viability, T/C",[33],58.1%
same,"viability, T/C",[34],36.2%
same,"viability, T/C",[35],7.13%
same,"viability, T/C",[36],4.45%
Cc1nc(N2CCC3(CC2)COC(C)C3N)c(CO)nc1Sc1ccnc(N)c1Cl (stereo not drawn) + C#Cc1c(F)ccc2cc(O)cc(-c3ncc4c(N5CC6CCC(C5)N6)nc(OCC56CCCN5CC(F)C6)nc4c3F)c12,IC50,second compound 0.0316 µM,5180 nM
same,IC50,second compound 0.1 µM,1650 nM
same,IC50,second compound 0.316 µM,883 nM
same,IC50,second compound 1 µM,482 nM
same,IC50,second compound 3.16 µM,156 nM
same,IC50,second compound 10 µM,< 31.6 nM
same,"viability, T/C",[1],104%
same,"viability, T/C",[2],107%
same,"viability, T/C",[3],94.8%
same,"viability, T/C",[4],88.9%
same,"viability, T/C",[5],76.1%
same,"viability, T/C",[6],19.1%
same,"viability, T/C",[7],104%
same,"viability, T/C",[8],102%
same,"viability, T/C",[9],92.3%
same,"viability, T/C",[10],69.5%
same,"viability, T/C",[11],25.7%
same,"viability, T/C",[12],4.47%
same,"viability, T/C",[13],99.9%
same,"viability, T/C",[14],93.3%
same,"viability, T/C",[15],79.2%
same,"viability, T/C",[16],49.8%
same,"viability, T/C",[17],7.28%
same,"viability, T/C",[18],4.45%
same,"viability, T/C",[19],81%
same,"viability, T/C",[20],81.5%
same,"viability, T/C",[21],69.5%
same,"viability, T/C",[22],16.2%
same,"viability, T/C",[23],7.77%
same,"viability, T/C",[24],4.16%
same,"viability, T/C",[25],81%
same,"viability, T/C",[26],59.2%
same,"viability, T/C",[27],35.6%
same,"viability, T/C",[28],11%
same,"viability, T/C",[29],9.29%
same,"viability, T/C",[30],6.04%
same,"viability, T/C",[31],38%
same,"viability, T/C",[32],22.6%
same,"viability, T/C",[33],14.1%
same,"viability, T/C",[34],13.3%
same,"viability, T/C",[35],8.12%
same,"viability, T/C",[36],3.97%
NC1c2ccccc2OC12CCN(c1cnc3c(N4CCCc5ncccc54)n[nH]c3n1)CC2 (stereo not drawn) + C#Cc1c(F)ccc2cc(O)cc(-c3ncc4c(N5CC6CCC(C5)N6)nc(OCC56CCCN5CC(F)C6)nc4c3F)c12,IC50,second compound 0.0316 µM,354 nM
same,IC50,second compound 0.1 µM,175 nM
same,IC50,second compound 0.316 µM,75.2 nM
same,IC50,second compound 1 µM,35.8 nM
same,IC50,second compound 3.16 µM,< 31.6 nM
same,IC50,second compound 10 µM,< 31.6 nM
same,"viability, T/C",[1],98.7%
same,"viability, T/C",[2],73.2%
same,"viability, T/C",[3],60.9%
same,"viability, T/C",[4],10.6%
same,"viability, T/C",[5],5.23%
same,"viability, T/C",[6],1.84%
same,"viability, T/C",[7],79.7%
same,"viability, T/C",[8],78.1%
same,"viability, T/C",[9],20.7%
same,"viability, T/C",[10],7.72%
same,"viability, T/C",[11],6.1%
same,"viability, T/C",[12],1.33%
same,"viability, T/C",[13],84.2%
same,"viability, T/C",[14],38.8%
same,"viability, T/C",[15],9.03%
same,"viability, T/C",[16],6.67%
same,"viability, T/C",[17],5.3%
same,"viability, T/C",[18],1.76%
same,"viability, T/C",[19],54.7%
same,"viability, T/C",[20],12.8%
same,"viability, T/C",[21],10.8%
same,"viability, T/C",[22],6.95%
same,"viability, T/C",[23],5.9%
same,"viability, T/C",[24],1.83%
same,"viability, T/C",[25],25.5%
same,"viability, T/C",[26],9.78%
same,"viability, T/C",[27],9.64%
same,"viability, T/C",[28],6.45%
same,"viability, T/C",[29],5.47%
same,"viability, T/C",[30],1.34%
same,"viability, T/C",[31],11.1%
same,"viability, T/C",[32],6.83%
same,"viability, T/C",[33],5.98%
same,"viability, T/C",[34],5.62%
same,"viability, T/C",[35],2.9%
same,"viability, T/C",[36],1.51%
